# Assay results taken from PubChem BioAssay AID1963845 (Molecular Pharmacology Branch, DTP, NCI, 2024).
# Tested on: 429239-143-T-J1-PDC complex spheroid viability
# Assay: Anticancer human tumor 429239-143-T-J1-PDC patient-derived small cell lung carcinoma cell line growth inhibition [POLQ]
# Details: for IC50: curve of first compound; for viability, T/C: stronger effect = lower value
# Method in brief: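 Growth inhibition in 3D: complex spheroids (tumor PDC, HUVEC, MSC) treated with POLQ inhibitor combinations; where Cmax unknown, highest tested concentration 10 microM, except SN-38 at 1 microM.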
# 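Also: luminescence signal used as surrogate measure of viable cells; spheroids exposed to compounds for seven days before readout.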
# 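For viability, T/C in this document: 100% = DMSO vehicle control viability as luminescence relative to vehicle.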
compound,measurement,setting,value
Cn1ncnc1[C@H]1c2n[nH]c(=O)c3cc(F)cc(c23)N[C@@H]1c1ccc(F)cc1 + Nc1ccc(C#CCN(C(=O)Cc2ncc(C(F)(F)F)cc2C(F)(F)F)c2ccc(F)cc2)nn1,IC50,second compound 0.0316 µM,> 100 nM
same,IC50,second compound 0.1 µM,> 100 nM
same,IC50,second compound 0.316 µM,> 100 nM
same,IC50,second compound 1 µM,> 100 nM
same,IC50,second compound 3.16 µM,> 100 nM
same,IC50,second compound 10 µM,> 100 nM
same,"viability, T/C","second compound 0.0316 µM, first compound 0.000316 µM",101%
same,"viability, T/C","second compound 0.0316 µM, first compound 0.001 µM",104%
same,"viability, T/C","second compound 0.0316 µM, first compound 0.00316 µM",89.8%
same,"viability, T/C","second compound 0.0316 µM, first compound 0.01 µM",83.4%
same,"viability, T/C","second compound 0.0316 µM, first compound 0.0316 µM",83.1%
same,"viability, T/C","second compound 0.0316 µM, first compound 0.1 µM",60.8%
same,"viability, T/C","second compound 0.1 µM, first compound 0.000316 µM",101%
same,"viability, T/C","second compound 0.1 µM, first compound 0.001 µM",104%
same,"viability, T/C","second compound 0.1 µM, first compound 0.00316 µM",95.3%
same,"viability, T/C","second compound 0.1 µM, first compound 0.01 µM",83.1%
same,"viability, T/C","second compound 0.1 µM, first compound 0.0316 µM",84.7%
same,"viability, T/C","second compound 0.1 µM, first compound 0.1 µM",60.4%
same,"viability, T/C","second compound 0.316 µM, first compound 0.000316 µM",104%
same,"viability, T/C","second compound 0.316 µM, first compound 0.001 µM",101%
same,"viability, T/C","second compound 0.316 µM, first compound 0.00316 µM",93.7%
same,"viability, T/C","second compound 0.316 µM, first compound 0.01 µM",83.8%
same,"viability, T/C","second compound 0.316 µM, first compound 0.0316 µM",79.8%
same,"viability, T/C","second compound 0.316 µM, first compound 0.1 µM",67.1%
same,"viability, T/C","second compound 1 µM, first compound 0.000316 µM",111%
same,"viability, T/C","second compound 1 µM, first compound 0.001 µM",112%
same,"viability, T/C","second compound 1 µM, first compound 0.00316 µM",95.1%
same,"viability, T/C","second compound 1 µM, first compound 0.01 µM",87.8%
same,"viability, T/C","second compound 1 µM, first compound 0.0316 µM",81.7%
same,"viability, T/C","second compound 1 µM, first compound 0.1 µM",58%
same,"viability, T/C","second compound 3.16 µM, first compound 0.000316 µM",106%
same,"viability, T/C","second compound 3.16 µM, first compound 0.001 µM",91.4%
same,"viability, T/C","second compound 3.16 µM, first compound 0.00316 µM",94.2%
same,"viability, T/C","second compound 3.16 µM, first compound 0.01 µM",95.2%
same,"viability, T/C","second compound 3.16 µM, first compound 0.0316 µM",75.8%
same,"viability, T/C","second compound 3.16 µM, first compound 0.1 µM",69.8%
same,"viability, T/C","second compound 10 µM, first compound 0.000316 µM",108%
same,"viability, T/C","second compound 10 µM, first compound 0.001 µM",91.7%
same,"viability, T/C","second compound 10 µM, first compound 0.00316 µM",101%
same,"viability, T/C","second compound 10 µM, first compound 0.01 µM",87.9%
same,"viability, T/C","second compound 10 µM, first compound 0.0316 µM",74.2%
same,"viability, T/C","second compound 10 µM, first compound 0.1 µM",60.2%
